One assay addresses KRas G12C (Homo sapiens, UniProt P01116, C118S/C51S/C80L/G12C). In words: KRas G12C Modification Assay (LCMS detection of covalent adduct). It is filed as binding. As to conditions: normalized percent of control; tested at 5 μM concentration for 3 hours. A digest of the protocol: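 Covalent modification was read by reverse-phase LC/MS of intact protein after compound exposure, each reaction stopped at its time point with 25 mM acetic acid. Unmodified-protein signal, taken as percent of total, was normalised to untreated protein and reported as POC.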

Assay [1] has as its system NCI-H358 cells (express KRas G12C), Phospho-ERK. In words: Cellular inhibition of KRas G12C: Phospho-ERK in NCI-H358 cells. It is filed as cell-based. The note with it: Homo sapiens, pERK(Thr202/Tyr204) normalized with GAPDH, NCI-H358 cells, 3 hours, read-out: IC50. A digest of the protocol: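 IC50 derived by 4-parameter fit of GAPDH-normalized pERK(Thr202/Tyr204) signal, as percent of DMSO control. Signal came from in-cell immunodetection with infrared secondaries after 3 h compound exposure of KRas G12C NCI-H358 cells at 0.5% DMSO.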

Like-named read-outs stand apart in the source and are kept apart here.

The IC50 is the concentration at which inhibition is half-maximal.

Turning to `C=CC(=O)N1CCN(c2nc(OC[C@@H]3CCCN3C)nc3c2CCN(c2cccc(OC)c2F)C3)CC1CC#N` (stereo partly drawn) [Example 307, 2-[4-[7-(2-fluoro-3-methoxy-phenyl)-2-[[(2S)-1-methylpyrrolidin-2-yl]methoxy]-6,8-dihydro-5H-pyrido[3,4-d]pyrimidin-4-yl]-1-prop-2-enoyl-piperazin-2-yl]acetonitrile], the POC entry at KRas G12C is “C (“C”>50% POC)”. The IC50 in assay [1] (NCI-H358, 3 h) is above 1000 nM.

Take `C=CC(=O)N1CCN(c2nc(OC[C@@H]3CCCN3C)nc3c2CCN(c2cccc(F)c2OC)C3)CC1CC#N` (stereo partly drawn) [Example 308, 2-[4-[7-(3-fluoro-2-methoxy-phenyl)-2-[[(2S)-1-methylpyrrolidin-2-yl]methoxy]-6,8-dihydro-5H-pyrido[3,4-d]pyrimidin-4-yl]-1-prop-2-enoyl-piperazin-2-yl]acetonitrile]: the POC result at KRas G12C was “C (“C”>50% POC)”. Further, the half-inhibitory concentration (IC50) in assay [1] (NCI-H358, 3 h) is 0.1 to 1000 nM.

Take `C=CC(=O)N1CCN(c2nc(OC[C@@H]3CCCN3C)nc3c2CCN(c2cccc4cccc(C)c24)C3)CC1CC#N` (stereo partly drawn) [Example 309, 2-(1-acryloyl-4-(7-(8-methylnaphthalen-1-yl)-2-(((S)-1-methylpyrrolidin-2-yl)methoxy)-5,6,7,8-tetrahydropyrido[3,4-d]pyrimidin-4-yl)piperazin-2-yl)acetonitrile]: the POC result at KRas G12C is recorded as “C (“C”>50% POC)”. Besides, the 50% inhibitory concentration (IC50) in assay [1] (NCI-H358, 3 h) lay in the range of 0.1 to 1000 nM.

Regarding `C=CC(=O)N1CCN(c2nc(OC[C@@H]3CCCN3C)nc3c2CCN(c2c(F)ccc4ccccc24)C3)CC1CC#N` (stereo partly drawn) [Example 311, 2-(1-acryloyl-4-(7-(2-fluoronaphthalen-1-yl)-2-(((S)-1-methylpyrrolidin-2-yl)methoxy)-5,6,7,8-tetrahydropyrido[3,4-d]pyrimidin-4-yl)piperazin-2-yl)acetonitrile], the POC result at KRas G12C is “C (“C”>50% POC)”. Also, in assay [1] (NCI-H358, 3 h), the IC50 was 0.1 to 1000 nM.

In the case of `C=CC(=O)N1CCN(c2nc(OC[C@@H]3C[C@@H](O)CN3C)nc3c2CCN(c2ccccc2C(F)(F)F)C3)CC1CC#N` (stereo partly drawn) [Example 312, 2-[4-[2-[[(2S,4R)-4-hydroxy-1-methyl-pyrrolidin-2-yl]methoxy]-7-[2-(trifluoromethyl)phenyl]-6,8-dihydro-5H-pyrido[3,4-d]pyrimidin-4-yl]-1-prop-2-enoyl-piperazin-2-yl]acetonitrile], at KRas G12C, the POC result is reported as “C (“C”>50% POC)”. The IC50 in assay [1] (NCI-H358, 3 h) is 0.1 to 1000 nM.

Regarding `C=CC(=O)N1CCN(c2nc(OC[C@@H]3CCN(C)C3)nc3c2CCN(c2c(C(F)(F)F)ccc4[nH]ncc24)C3)CC1CC#N` (stereo partly drawn) [Example 313, 2-[4-[2-[[(3R)-1-methylpyrrolidin-3-yl]methoxy]-7-[5-(trifluoromethyl)-1H-indazol-4-yl]-6,8-dihydro-5H-pyrido[3,4-d]pyrimidin-4-yl]-1-prop-2-enoyl-piperazin-2-yl]acetonitrile], the POC entry at KRas G12C was “C (“C”>50% POC)”. The half-maximal inhibitory concentration (IC50) in assay [1] was in the range of 0.1 to 1000 nM.

As to `C=CC(=O)N1CCN(c2nc(OC[C@@H]3CCCN3C)nc3c2CCN(c2cc(OC)cc4ccccc24)C3)C[C@@H]1CC#N` [Example 314, 2-[(2S)-4-[7-(3-methoxy-1-naphthyl)-2-[[(2S)-1-methylpyrrolidin-2-yl]methoxy]-6,8-dihydro-5H-pyrido[3,4-d]pyrimidin-4-yl]-1-prop-2-enoyl-piperazin-2-yl]acetonitrile], at KRas G12C, the POC entry was “C (“C”>50% POC)”. For the same compound, the half-maximal inhibitory concentration (IC50) in assay [1] (NCI-H358, 3 h) was in the range of 0.1 to 1000 nM.

`C=CC(=O)N1CCN(c2nc(OC[C@@H]3C[C@@H](O)CN3C)nc3c2CCN(c2cccc4ccccc24)C3)C[C@@H]1CC#N` [Example 315, 2-[(2S)-4-[2-[[(2S,4R)-4-hydroxy-1-methyl-pyrrolidin-2-yl]methoxy]-7-(1-naphthyl)-6,8-dihydro-5H-pyrido[3,4-d]pyrimidin-4-yl]-1-prop-2-enoyl-piperazin-2-yl]acetonitrile]: at KRas G12C, the POC entry is “C (“C”>50% POC)”. Also, the 50% inhibitory concentration (IC50) in assay [1] (NCI-H358, 3 h) fell in the range of 0.1 to 1000 nM.

Consider `C=CC(=O)N1CCN(c2nc(OC[C@@H]3CCCN3C)nc3c2CCN(c2ccc(F)c4ccccc24)C3)C[C@@H]1CC#N` [Example 316, 2-((S)-1-acryloyl-4-(7-(4-fluoronaphthalen-1-yl)-2-(((S)-1-methylpyrrolidin-2-yl)methoxy)-5,6,7,8-tetrahydropyrido[3,4-d]pyrimidin-4-yl)piperazin-2-yl)acetonitrile], for which the POC result on KRas G12C was “C (“C”>50% POC)”. Further, in assay [1] (NCI-H358, 3 h), the IC50 lay in the range of 0.1 to 1000 nM.

On to `C=CC(=O)N1CCN(c2nc(OC[C@@H]3CCCN3C)nc3c2CCN(c2cc(O)cc4ccccc24)C3)C[C@@H]1CC#N` [Example 317, 2-((S)-1-acryloyl-4-(7-(3-hydroxynaphthalen-1-yl)-2-(((S)-1-methylpyrrolidin-2-yl)methoxy)-5,6,7,8-tetrahydropyrido[3,4-d]pyrimidin-4-yl)piperazin-2-yl)acetonitrile], for which the POC entry on KRas G12C is “C (“C”>50% POC)”. Moreover, the concentration for half-maximal inhibition (IC50) in assay [1] (NCI-H358, 3 h) lay in the range of 0.1 to 1000 nM.

For `C=CC(=O)N1CCN(c2nc(OC[C@H]3CCCN3C)nc3c2CCN(c2ccc(F)c4ccccc24)C3)C[C@@H]1CC#N` [Example 318, 2-[(2S)-4-[7-(4-fluoro-1-naphthyl)-2-[[(2R)-1-methylpyrrolidin-2-yl]methoxy]-6,8-dihydro-5H-pyrido[3,4-d]pyrimidin-4-yl]-1-prop-2-enoyl-piperazin-2-yl]acetonitrile], the POC result on KRas G12C is “C (“C”>50% POC)”. Besides, the 50% inhibitory concentration (IC50) in assay [1] (NCI-H358, 3 h) was in the range of 0.1 to 1000 nM.

For the compound `C=CC(=O)N1CCN(c2nc(OC[C@H]3CCCN3C)nc3c2CCN(c2cccc(Cl)c2C(F)(F)F)C3)C[C@@H]1CC#N` [Example 319, 2-((S)-1-acryloyl-4-(7-(3-chloro-2-(trifluoromethyl)phenyl)-2-(((R)-1-methylpyrrolidin-2-yl)methoxy)-5,6,7,8-tetrahydropyrido[3,4-d]pyrimidin-4-yl)piperazin-2-yl)acetonitrile], the POC result on KRas G12C was “C (“C”>50% POC)”. In addition, the IC50 in assay [1] (NCI-H358, 3 h) is 0.1 to 1000 nM.

On to `C=CC(=O)N1CCN(c2nc(OC[C@@H]3CCCN3C(C)C)nc3c2CCN(c2cccc4ccccc24)C3)C[C@@H]1CC#N` [Example 320, 2-[(2S)-4-[2-[[(2S)-1-isopropylpyrrolidin-2-yl]methoxy]-7-(1-naphthyl)-6,8-dihydro-5H-pyrido[3,4-d]pyrimidin-4-yl]-1-prop-2-enoyl-piperazin-2-yl]acetonitrile], for which the POC result on KRas G12C is given as “C (“C”>50% POC)”. In assay [1] (NCI-H358, 3 h), the IC50 lay in the range of 0.1 to 1000 nM.

As to `C=CC(=O)N1CCN(c2nc(OC[C@@H]3CCCN3C)nc3c2CCN(c2c(O)cccc2F)C3)[C@@H](C)C1` [Example 321, 1-[(3S)-4-[7-(2-fluoro-6-hydroxy-phenyl)-2-[[(2S)-1-methylpyrrolidin-2-yl]methoxy]-6,8-dihydro-5H-pyrido[3,4-d]pyrimidin-4-yl]-3-methyl-piperazin-1-yl]prop-2-en-1-one], the POC result at KRas G12C was “B (“B”>25% POC−≤50% POC)”. Further, the 50% inhibitory concentration (IC50) in assay [1] (NCI-H358, 3 h) is above 1000 nM.

As for `C=CC(=O)N1CCN(c2nc(OC[C@@H]3CCCN3CC)nc3c2CCN(c2ccc(F)c4ccccc24)C3)CC1CC#N` (stereo partly drawn) [Example 322, 2-(1-acryloyl-4-(2-(((S)-1-ethylpyrrolidin-2-yl)methoxy)-7-(4-fluoronaphthalen-1-yl)-5,6,7,8-tetrahydropyrido[3,4-d]pyrimidin-4-yl)piperazin-2-yl)acetonitrile], at KRas G12C, the POC entry is “C (“C”>50% POC)”. The IC50 in assay [1] (NCI-H358, 3 h) was 0.1 to 1000 nM.

On to `C=CC(=O)N1CCN(c2nc(OC[C@H]3C[C@H](O)CN3C)nc3c2CCN(c2cccc4ccccc24)C3)C[C@@H]1CC#N` [Example 323, 2-[(2S)-4-[2-[[(2R,4S)-4-hydroxy-1-methyl-pyrrolidin-2-yl]methoxy]-7-(1-naphthyl)-6,8-dihydro-5H-pyrido[3,4-d]pyrimidin-4-yl]-1-prop-2-enoyl-piperazin-2-yl]acetonitrile], for which the POC result on KRas G12C is on record as “C (“C”>50% POC)”. Besides, in assay [1] (NCI-H358, 3 h), the half-inhibitory concentration (IC50) lay within 0.1 to 1000 nM.

Consider `C=CC(=O)N1CCN(c2nc(OC[C@@H]3CCCN3C)nc3c2CCN(c2cccc(OC)c2C)C3)C[C@@H]1CC#N` [Example 324, 2-[(2S)-4-[7-(3-methoxy-2-methyl-phenyl)-2-[[(2S)-1-methylpyrrolidin-2-yl]methoxy]-6,8-dihydro-5H-pyrido[3,4-d]pyrimidin-4-yl]-1-prop-2-enoyl-piperazin-2-yl]acetonitrile], for which, at KRas G12C, the POC entry is recorded as “C (“C”>50% POC)”. The 50% inhibitory concentration (IC50) in assay [1] (NCI-H358, 3 h) lay in the range of 0.1 to 1000 nM.

On to `C=CC(=O)N1CCN(c2nc(OC[C@@H]3CCCN3C)nc3c2CCN(c2ccccc2C#N)C3)C[C@@H]1CC#N` [Example 325, 2-[4-[(3S)-3-(cyanomethyl)-4-prop-2-enoyl-piperazin-1-yl]-2-[[(2S)-1-methylpyrrolidin-2-yl]methoxy]-6,8-dihydro-5H-pyrido[3,4-d]pyrimidin-7-yl]benzonitrile], for which the POC entry at KRas G12C is reported as “C (“C”>50% POC)”. The IC50 in assay [1] (NCI-H358, 3 h) was above 1000 nM.

As for `C=CC(=O)N1CCN(c2nc(OC[C@@H]3CCCN3C)nc3c2CCN(c2cccc4ccc(C)cc24)C3)C[C@@H]1CC#N` [Example 326, 2-((S)-1-acryloyl-4-(7-(7-methylnaphthalen-1-yl)-2-(((S)-1-methylpyrrolidin-2-yl)methoxy)-5,6,7,8-tetrahydropyrido[3,4-d]pyrimidin-4-yl)piperazin-2-yl)acetonitrile], the POC result on KRas G12C is reported as “C (“C”>50% POC)”. In assay [1] (NCI-H358, 3 h), the 50% inhibitory concentration (IC50) lay in the range of 0.1 to 1000 nM.

Regarding `C=CC(=O)N1CCN(c2nc(OC[C@@H]3C[C@@H](OC)CN3C)nc3c2CCN(c2cccc4ccccc24)C3)C[C@@H]1CC#N` [Example 327, 2-((S)-1-acryloyl-4-(2-(((2S,4R)-4-methoxy-1-methylpyrrolidin-2-yl)methoxy)-7-(naphthalen-1-yl)-5,6,7,8-tetrahydropyrido[3,4-d]pyrimidin-4-yl)piperazin-2-yl)acetonitrile], the POC result at KRas G12C is listed as “C (“C”>50% POC)”. Also, the IC50 in assay [1] (NCI-H358, 3 h) was 0.1 to 1000 nM.

The values are drawn from patent US10125134B2 (Mirati Therapeutics, Inc., priority 2016, dated 2018).
